{"source": "patent US10821160B2", "about": "“L-asparaginase variants and fusion proteins with reduced L-glutaminase activity and enhanced stability” (priority 2016, dated 2020)", "key": {"[1]": {"target": "Erwinia chrysanthemi L-asparaginase (ErA) variant E63Q (ErA-E63Q), SEQ ID NO:2 (Dickeya chrysanthemi, UniProt P06608, E84Q)", "type": "biochemical", "design": "lacking the first 21-amino acid residue signal peptide; His6-SUMO (yeast Smt3p) (N, cleaved yes); made in house; host or cells: E. coli BL21(DE3) C41", "method": "(§1) A conventional assay for determining L-glutaminase activity (Gella & Pascual (1982) Anal. Biochem. 127:322-5) was used with some modifications. The purified enzyme was mixed into a solution containing 50 mM Tris-HCl pH 8.5, 1 mg/mL BSA, 7 U GDH (Glutamate dehydrogenase, Sigma-Aldrich), 3 mM INT (Iodonitrotetrazolium chloride, Sigma-Aldrich), 100 mM PMS (Phenazine methosulfate, Sigma-Aldrich), and 100 mM NAD+. […] The latter, in the presence of NAD+ and under the catalysis of GDH, is broken further into α-ketoglutarate and ammonia. NADH produced by this second reaction, together with INT serve as inputs to the third reaction, where the formation of INT-formazan under the catalysis of PMS can be followed spectrophotometrically as an increase in absorbance at 500 nm. All reactions were carried out at 37° C. 1 IU of enzyme is defined as the amount of enzyme used to produce 1 μmole of product in 1 minute at 37° C.\n(§2) Using colorimetric enzyme-coupled assays, L-asparaginase and L-glutaminase activity of the enzymes was determined."}, "[2]": {"target": "T1, Escherichia coli L-asparaginase, wild type (EcA-WT), SEQ ID NO:9 (Escherichia coli, UniProt P00805)", "T1 sequence (P00805 with tags, fused parts or gaps)": "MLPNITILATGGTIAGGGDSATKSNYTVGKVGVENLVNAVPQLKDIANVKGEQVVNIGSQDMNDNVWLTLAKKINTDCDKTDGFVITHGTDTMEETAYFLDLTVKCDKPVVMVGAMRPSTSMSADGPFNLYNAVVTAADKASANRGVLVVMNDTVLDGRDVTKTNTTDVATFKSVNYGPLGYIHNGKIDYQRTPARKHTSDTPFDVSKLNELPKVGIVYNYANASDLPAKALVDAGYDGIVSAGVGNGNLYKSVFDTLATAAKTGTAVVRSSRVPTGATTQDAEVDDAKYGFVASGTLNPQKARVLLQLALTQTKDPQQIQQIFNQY", "assay": "L-glutaminase activity, GDH/INT coupled assay", "type": "biochemical", "method": "as §1"}, "[3]": {"target": "T2, Erwinia chrysanthemi L-asparaginase, wild type (ErA-WT), SEQ ID NO:1 (Dickeya chrysanthemi, UniProt P06608)", "T2 construct": "lacking the first 21-amino acid residue signal peptide; His6-SUMO (yeast Smt3p) (N, cleaved yes); made in house; host or cells: E. coli BL21(DE3) C41", "assay": "L-glutaminase activity, GDH/INT coupled assay", "type": "biochemical", "method": "as §1, §2"}, "[4]": {"tested_on": "Erwinia chrysanthemi L-asparaginase (ErA) variant E63Q-S254Q (ErA-DM3), SEQ ID NO:5", "assay": "L-glutaminase activity, GDH/INT coupled assay", "type": "biochemical", "conditions": "Gln, 37° C", "method": "as §1, §2"}, "[5]": {"target": "T3, Erwinia chrysanthemi L-asparaginase (ErA) variant E63Q-S254Q (ErA-DM3), SEQ ID NO:5 (Dickeya chrysanthemi, UniProt P06608, E84Q/S275N)", "T3 construct": "lacking the first 21-amino acid residue signal peptide; His6-SUMO (yeast Smt3p) (N, cleaved yes); made in house; host or cells: E. coli BL21(DE3) C41", "assay": "L-glutaminase activity, GDH/INT coupled assay", "type": "biochemical", "conditions": "Gln, head prints 50 mM", "method": "as §1, §2"}, "[6]": {"target": "T4, Erwinia chrysanthemi L-asparaginase (ErA) variant E63Q-S254Q (ErA-DM3), SEQ ID NO:5 (Dickeya chrysanthemi, UniProt P06608, E84Q/S275Q)", "T4 construct": "lacking the first 21-amino acid residue signal peptide; His6-SUMO (yeast Smt3p) (N, cleaved yes); made in house; host or cells: E. coli BL21(DE3) C41", "assay": "L-glutaminase activity, GDH/INT coupled assay", "type": "biochemical", "method": "as §1, §2"}, "[7]": {"tested_on": "Erwinia chrysanthemi L-asparaginase (ErA) variants ErA-E63Q, ErA-DM2 (A31I-E63Q) and ErA-DM1 (E63Q-S254N)", "assay": "L-glutaminase activity of the mutants as a group vs ErA-WT", "type": "biochemical", "method": "as §1, §2"}, "[8]": {"target": "Erwinia chrysanthemi L-asparaginase (ErA) variant A31I-E63Q-S254Q (ErA-TM2), SEQ ID NO:6 (Dickeya chrysanthemi, UniProt P06608, A52I/E84Q/S275Q)", "method": "as §1"}, "[9]": {"target": "T5, Erwinia chrysanthemi L-asparaginase (ErA) variant E63Q-S254N (ErA-DM1), SEQ ID NO:3 (Dickeya chrysanthemi, UniProt P06608, E84Q/S275N)", "T5 construct": "lacking the first 21-amino acid residue signal peptide; His6-SUMO (yeast Smt3p) (N, cleaved yes); made in house; host or cells: E. coli BL21(DE3) C41", "type": "biochemical", "method": "as §1, §2"}, "[10]": {"target": "T6, Erwinia chrysanthemi L-asparaginase (ErA) variant A31I-E63Q (ErA-DM2), SEQ ID NO:4 (Dickeya chrysanthemi, UniProt P06608, A52I/E84Q)", "T6 construct": "lacking the first 21-amino acid residue signal peptide; His6-SUMO (yeast Smt3p) (N, cleaved yes); made in house; host or cells: E. coli BL21(DE3) C41", "type": "biochemical", "method": "as §1, §2"}, "[11]": {"target": "T7, Erwinia chrysanthemi L-asparaginase (ErA) variant A31I-E63Q-S254N (ErA-TM1), SEQ ID NO:7 (Dickeya chrysanthemi, UniProt P06608, A52I/E84Q/S275N)", "T7 construct": "lacking the first 21-amino acid residue signal peptide; His6-SUMO (yeast Smt3p) (N, cleaved yes); made in house; host or cells: E. coli BL21(DE3) C41", "type": "biochemical", "method": "as §1"}}, "note": "Values joined by “and” are separate entries in the source; they are usually repeats but may differ in a detail not shown here. Equal entries are not always repeated.", "data": [{"smiles": "NC(=O)CC[C@H](N)C(=O)O", "note": "[Gln, L-glutamine]", "values": [{"measurement": "kobs @100 μM", "setting": "[1]; 100 μM Gln", "value": 0.098, "unit": "s⁻¹"}, {"measurement": "kobs @0.5 mM", "setting": "[1]; 0.5 mM Gln", "value": 0.74, "unit": "s⁻¹"}, {"measurement": "kobs @500 μM", "setting": "[1]; 500 μM Gln", "value": 0.72, "unit": "s⁻¹"}, {"measurement": "kobs @1 mM", "setting": "[1]; 1 mM Gln", "value": 2.16, "unit": "s⁻¹"}, {"measurement": "Km", "setting": "[1]; Gln, 37° C", "value": "3.86 ± 0.23", "unit": "mM"}, {"measurement": "kcat", "setting": "[1]; Gln, 37° C", "value": "8.33 ± 0.16", "unit": "s⁻¹"}, {"measurement": "kcat/Km", "setting": "[1]; Gln, 37° C", "value": "3.68 sec^−1mM^−1 and 3.68 × 10^−3 sec^−1μM^−1"}, {"measurement": "kobs @100 μM", "setting": "[2]; 100 μM Gln", "value": 0.047, "unit": "s⁻¹"}, {"measurement": "kobs @0.5 mM", "setting": "[2]; 0.5 mM Gln", "value": 0.22, "unit": "s⁻¹"}, {"measurement": "kobs @500 μM", "setting": "[2]; 500 μM Gln", "value": 0.22, "unit": "s⁻¹"}, {"measurement": "kobs @1 mM", "setting": "[2]; 1 mM Gln", "value": 0.36, "unit": "s⁻¹"}, {"measurement": "kobs @ 50 mM", "setting": "[2]; Gln", "value": 0.22, "unit": "s⁻¹"}, {"measurement": "kcat/Km", "setting": "[2]; Gln, 37° C", "value": "0.64 × 10^−3 sec^−1μM^−1"}, {"measurement": "kobs @100 μM", "setting": "[3]; 100 μM Gln", "value": 6.118, "unit": "s⁻¹"}, {"measurement": "kobs @0.5 mM", "setting": "[3]; 0.5 mM Gln", "value": 15.87, "unit": "s⁻¹"}, {"measurement": "kobs @500 μM", "setting": "[3]; 500 μM Gln", "value": 15.06, "unit": "s⁻¹"}, {"measurement": "kobs @1 mM", "setting": "[3]; 1 mM Gln", "value": 19.22, "unit": "s⁻¹"}, {"measurement": "kcat/Km", "setting": "[3]; Gln, 37° C", "value": "74.56 × 10^−3 sec^−1μM^−1"}, {"measurement": "kobs @ 50 mM", "setting": "[3]; Gln, head prints 50 mM", "value": 15.87, "unit": "s⁻¹"}, {"measurement": "Km", "setting": "[4]", "value": 84, "unit": "mM"}, {"measurement": "kobs @ 50 mM", "setting": "[5]", "value": 0.11, "unit": "s⁻¹"}, {"measurement": "kobs @100 μM", "setting": "[6]; 100 μM Gln", "value": 0.009, "unit": "s⁻¹"}, {"measurement": "kobs @0.5 mM", "setting": "[6]; 0.5 mM Gln", "value": 0.0226, "unit": "s⁻¹"}, {"measurement": "kobs @500 μM", "setting": "[6]; 500 μM Gln", "value": 0.02, "unit": "s⁻¹"}, {"measurement": "kobs @1 mM", "setting": "[6]; 1 mM Gln", "value": 0.19, "unit": "s⁻¹"}, {"measurement": "observed L-glutaminase rate reduced by", "setting": "[7]; 0.5 mM Gln, relative to ErA-WT", "value": "95-99%"}, {"measurement": "L-glutaminase efficiency (kcat/Km) reduced by", "setting": "[7]; Gln, vs ErA-WT", "value": "20-400 fold"}, {"measurement": "increased Km (fold higher compared ErA-WT)", "setting": "[7]; Gln, vs ErA-WT", "value": "8-44 fold"}, {"measurement": "reduced kcat (fold lower compared ErA-WT)", "setting": "[7]; Gln, vs ErA-WT", "value": "3-9 fold"}, {"measurement": "kobs @100 μM", "setting": "[8]; 100 μM Gln", "value": 0.0045, "unit": "s⁻¹"}, {"measurement": "kobs @0.5 mM", "setting": "[8]; 0.5 mM Gln", "value": 0.0083, "unit": "s⁻¹"}, {"measurement": "kobs @500 μM", "setting": "[8]; 500 μM Gln", "value": 0.0083, "unit": "s⁻¹"}, {"measurement": "Km", "setting": "[8]; Gln, 37° C", "value": 47.5, "unit": "mM"}, {"measurement": "kcat", "setting": "[8]; Gln, 37° C", "value": "1.836 ± 0.11", "unit": "s⁻¹"}, {"measurement": "kcat/Km", "setting": "[8]; Gln, 37° C", "value": "0.04 × 10^−3 sec^−1μM^−1"}, {"measurement": "kobs @100 μM", "setting": "[9]; 100 μM Gln", "value": 0.019, "unit": "s⁻¹"}, {"measurement": "kobs @0.5 mM", "setting": "[9]; 0.5 mM Gln", "value": 0.11, "unit": "s⁻¹"}, {"measurement": "kobs @500 μM", "setting": "[9]; 500 μM Gln", "value": 0.07, "unit": "s⁻¹"}, {"measurement": "kobs @1 mM", "setting": "[9]; 1 mM Gln", "value": 0.18, "unit": "s⁻¹"}, {"measurement": "Km", "setting": "[9]; Gln, 37° C", "value": "15.8 ± 0.3", "unit": "mM"}, {"measurement": "kcat", "setting": "[9]; Gln, 37° C", "value": "2.93 ± 0.03", "unit": "s⁻¹"}, {"measurement": "kcat/Km", "setting": "[9]; Gln, 37° C", "value": "0.19 × 10^−3 sec^−1μM^−1"}, {"measurement": "kobs @100 μM", "setting": "[10]; 100 μM Gln", "value": 0.105, "unit": "s⁻¹"}, {"measurement": "kobs @0.5 mM", "setting": "[10]; 0.5 mM Gln", "value": 0.83, "unit": "s⁻¹"}, {"measurement": "kobs @500 μM", "setting": "[10]; 500 μM Gln", "value": 0.73, "unit": "s⁻¹"}, {"measurement": "kobs @1 mM", "setting": "[10]; 1 mM Gln", "value": 2.20, "unit": "s⁻¹"}, {"measurement": "Km", "setting": "[10]; Gln, 37° C", "value": "2.73 ± 0.02", "unit": "mM"}, {"measurement": "kcat", "setting": "[10]; Gln, 37° C", "value": "6.01 ± 0.13", "unit": "s⁻¹"}, {"measurement": "kcat/Km", "setting": "[10]; Gln, 37° C", "value": "2.2 × 10^−3 sec^−1μM^−1"}, {"measurement": "kobs @0.5 mM", "setting": "[11]; 0.5 mM Gln", "value": 0.11, "unit": "s⁻¹"}, {"measurement": "kobs @1 mM", "setting": "[11]; 1 mM Gln", "value": 0.33, "unit": "s⁻¹"}, {"measurement": "Km", "setting": "[11]; Gln, 37° C", "value": 28.2, "unit": "mM"}, {"measurement": "kcat", "setting": "[11]; Gln, 37° C", "value": "5.6 ± 0.2", "unit": "s⁻¹"}, {"measurement": "kcat/Km", "setting": "[11]; Gln, 37° C", "value": "0.19 × 10^−3 sec^−1μM^−1"}]}]}
